These results are taken from US11752215B2, “Targeting tumor cells with chemotherapeutic agents conjugated to anti-matriptase antibodies by in vivo cleavable linking moieties” (priority 2016, dated 2023).

In data set [1] the test system is bone marrow-derived MSCs (lack matriptase expression). The data set is described as follows: Tolerance of bone marrow-derived mesenchymal stromal cells (cell count). The format is cell-based, human. To be noted: 5 nM, 4 days. The protocol:
Cell numbers were determined by Vi-Cell counter.
Human bone marrow-derived MSCs, which lack matriptase expression, were used as a control to determine the cytotoxic selectivity of M24-DOX as shown in FIG. 4 where bone marrow-derived mesenchymal stromal cells (5×10^4/well, 24-well plates) were treated with M24-DOX or free DOX at varying concentrations for 4 days. Cell numbers were determined by Vi-Cell counter.

Data set [2] has as its system breast tumors (MDA-MB468). The data set is described as follows: Human breast xenograft tumor model, M69-DOX. In kind it is in vivo, NOD/SCID mice. The conditions noted are these: 2 mg/kg. The protocol: FIG. 8 illustrates the M69-DOX conjugate targeting active matriptase inhibited breast tumor growth in vivo, comparing treatment by M69-DOX at 10 mg/Kg and 20 mg/Kg doses with treatment by DOX at 2 mg/Kg dose and the control.
FIG. 9 illustrates reduction of the tumor weight by M69-DOX at 10 mg/Kg and 20 mg/Kg doses in comparison with treatment by DOX at 2 mg/Kg dose and the control.
To assess the efficacy of M69-DOX to suppress tumor growth in vivo, a human breast xenograft tumor model was used. NOD/SCID mice bearing breast tumors (MDA-MB468) were treated twice weekly with M69-DOX at either 20 or 10 mg/kg, as well as treated with DOX at 2 mg/kg. […] As a single mAb was attached with 7 molecules of DOX, a dose at 10 mg/kg of M69-DOX is equivalent to […] of DOX administered.
Reduced Weights of Tumor Masses in Mice Treated with M69-DOX. At the end of the treatment course, the tumor masses were collected from the experimental mice, and were weighed. The average weights of tumors from the groups treated with M69-DOX at either dose as well as treated with DOX were reduced to about 50% of the one from the untreated control group (FIG. 9). Significant reduction in tumor weights by M69-DOX further confirms the efficacy of site-directed delivery of DOX to tumor cells expressing activated matriptase.

The subject of another data set is matriptase. Nature of the data set: Matriptase activation in MM cells (Western analysis with mAb M69). The conditions noted are these: 24-hour treatment, 50 μM. In kind it is cell-based, human. Here is the method: FIG. 5 illustrates activation of matriptase in MM cells induced by thalidomide. MM cells (MM.1S) were treated with varying concentrations of thalidomide as indicated for 24 hours followed by Western analyses to detect the activation of matriptase using a specific monoclonal antibody (M69) to the active form of the enzyme. […] GAPDH served as control.
FIG. 7 illustrates activation of matriptase in MM cells induced by thalidomide. MM cells (MM.1S) were treated with varying concentrations of thalidomide as indicated for 24 hours followed by Western analyses to detect the activation of matriptase using a specific monoclonal antibody (M69) to the active form of the enzyme. […] GAPDH served as control.
To examine the increase in cytotoxicity that resulted with the thalidomide and M69-DOX conjugate we measured the effect of thalidomide on expression of activated matriptase.

A further data set has as its system MM cells. Nature of the data set: MM cell proliferation, DOX-conjugates alone and combined with thalidomide. In kind it is cell-based. The conditions noted are these: thalidomide alone. The text has this:
FIGS. 6A and B illustrate that thalidomide sensitizes MM cells to M69-DOX, but not M24-DOX: (A) comparison of treatment of MM cells by M69-DOX alone with the M69-DOX/thalidomide combination treatment; and (B) comparison of treatment of MM cells by M24-DOX alone with the M24-DOX/thalidomide combination treatment.
Thalidomide is a therapeutic for multiple myeloma treatment, and the combination of thalidomide and dexamethasone is one of the most common regimens for treatment of patients with multiple myeloma, with an response rate of up to 60-70% (Denz, U., Eur. J. Cancer., 2006, 42:1591-1600; Gieseler, F., et al., Thromb. Haemost., 2008, 99: 1001-1007). The efficacy of both DOX-conjugates in combination with current MM therapeutics such as thalidomide was tested.

A further data set concerns PC-3 prostate carcinoma. The conditions noted are these: PC-3 xenograft; cited from earlier work.

“Also recorded” adds a separate entry of the source.

In the case of `COc1cccc2c1C(=O)c1c(O)c3c(c(O)c1C2=O)C[C@@](O)(C(=O)CO)C[C@@H]3OC1CC(N)C(O)C(C)O1` (stereo partly drawn) [DOX, (8S,10S)-10-(4-amino-5-hydroxy-6-methyl-tetrahydro-2H-pyran-2-yloxy)-6,8,11-trihydroxy-8-(2-hydroxyacetyl)-1-methoxy-7,8,9,10-tetrahydrotetracene-5,12-dione], the “effect on MSC proliferation” value in data set [1] was “significantly inhibit cell proliferation”. Moreover, in data set [2], the tumor growth result was “significantly abolished”. In addition, the “average weights of tumors relative to untreated control group” value in data set [2] (end of treatment) is listed as “about 50%”.
Take `O=C1CCC(N2C(=O)c3ccccc3C2=O)C(=O)N1` (stereo not drawn) [thalidomide]: the “activation of matriptase in MM cells” value with matriptase is reported as “markedly enhanced”. Also, the “effect on MM cell proliferation” value in the data set on MM cells is given as “no effect on MM cell proliferation; also recorded: little effect on the cell proliferation of MM cells”.
As for ecotin: matriptase inhibitor, in the data set on PC-3 prostate carcinoma, the “tumor growth and metastasis formation” value was “Reduced tumor growth and metastasis formation”.
